# Reference: patent US20160058829A1, “ANTI-FIBROTIC PEPTIDES AND THEIR USE IN METHODS FOR TREATING DISEASES AND DISORDERS CHARACTERIZED BY FIBROSIS” (Thrasos Innovation, Inc., priority 2011, published 2016)
# “Also recorded” adds a separate entry of the source. Positions of bridges follow the written chain, without caps; N, C: chain ends.
# B1: BMP-7: bone morphogenetic protein-7; recombinant human BMP7, positive control (protein)
# chain: STGSKQRSQNRSKTPKNQEALRMANVAENSSSDQRQACKKHELYVSFRDLGWQDWIIAPEGYAAYYCEGECAFPLNSYMNATNHAIVQTLVHFINPETVPKPCCAPTQLNAISVLYFDDSSNVILKKYRNMVVRACGCH
# Columns and labels:
# [1] = system: mice with unilateral ureteral obstruction (UUO); test: Unilateral ureteral obstruction (UUO) in mice; format: in vivo; details: for kidney histology (H&E), day 7 UUO: BMP7 i.p., THR-123 i.p. or orally; for interstitial volume / fibrosis, day 7 UUO: BMP-7 300 μg/Kg every other day i.p., THR-123 5 mg/Kg/day i.p. or oral
# Protocol: FIG. 56A-FIG. 56J The effect of THR-123 on mice with unilateral ureteral obstruction (UUO) mice. At the day of UUO, BMP-7 (300 μg/Kg/every other day, intraperitoneal administration) or THR-123 (5 mg/Kg/day, oral or intraperitoneal administration) are initiated. FIG. 56A-FIG. 56D: Masson's trichrome staining of normal kidney, day 5 UUO kidney. FIG. 56A. normal kidney section. […] FIG. 56C, FIG. 56D. […] FIG. 56E. Morphometric analysis for relative interstitial volume. Interstitial volume was calculated by the point counting method. FIG. 56F-FIG. 56I. Masson's trichrome staining of normal kidney, day 7 UUO kidney. […] FIG. 56I. Morphometric analysis for relative interstitial volume. Interstitial volume was calculated by the point counting method. […] Normal mice (n=4), day 5 UUO without treatment (n=4), day 5 UUO-treated with 5 mg/kg THR-123 (n=4), day 5 UUO-treated with 15 mg/kg THR-123 (n=4), day 7 UUO-treated with PBS (n=8), -treated with BMP (n=8) and -treated with THR-123 (n=7 in both i.p. and oral). Data are shown as mean±s.e.m. in the graph (FIG. 56J).
# FIG. 57A-FIG. 57H The effect of THR-123 on mice with unilateral ureteral obstruction (UUO) mice (H&E staining). On the day UUO was performed, treatments of BMP7 (300 μg/Kg/every other day, intraperitoneal administration) or THR-123 (5 mg/Kg/day, oral or intraperitoneal administration) are initiated. FIG. 57A. Normal kidney section. FIG. 57B. Day 5 UUO mice FIG. 57C, FIG. 57D. Kidney of UUO mice treated with THR-123 orally at 5 mg/kg (FIG. 57C) or 15 mg/kg (FIG. 57D) E-H. Day 7 UUO kidney histology. […] Normal mice (n=4), day 5 UUO without treatment (n=4), day 5 UUO-treated with 5 mg/kg THR-123 (n=4), day 5 UUO-treated with 15 mg/kg THR-123 (n=4), day 7 UUO-treated with PBS (n=8), -treated with BMP (n=8) and -treated with THR-123 (n=7 in both i.p. and oral).
# FIG. 58 Gene expression analysis for the fibrosis markers in mice with UUO. Quantitative RT-PCR analysis for fibronectin-EIII and collagen type-I in normal kidney and day 7 UUO kidney with or without indicated treatment.
# Mice are anesthetized with the mixture of ketamine and xylazine. Prepare the ureter from the surrounding tissues and place two ligatures about 5 mm apart in upper two-thirds of the ureter of the left kidney to obtain reliable obstruction. At same day after surgery, mice were initiated treatment with BMP7 (300 μg i.p./Kg/every other day), THR-123 (p.o. 5 mg or 15 mg/Kg/day, i.p. 5 mg/Kg/day) or PBS (i.p.) as control. Mice are sacrificed at day 5 or 7 after operation.
# HK-2 cells = test: TNF-α-induced inflammatory cytokine production in HK-2 cells (ELISA); format: cell-based, human; details: HK-2 cells
# Protocol: FIG. 37 provides a bar graph showing a comparison of the effects of THR-123 (or “THR-1405”) and the specific inhibitor SB 203580 on the level of TNF-α-induced IL-6 production, an inflammatory marker, in human renal tubule epithelial cells (HK-2).
# FIG. 47A-FIG. 47C Anti-inflammatory activity of THR-123. PTEC-derived HK-2 (HK-2) cells were culture on 24-well plate (30,000 cells/well). Cells are exposed to K-SFM medium alone or TNF-α (5 ng/ml). Twenty hours after TNF-α incubation, cells are washed twice by pre-warmed culture media and subsequently cells are incubated with various concentration of THR-123 or BMP7 for 60 hours. At the end of incubation, culture medias are harvested and ELISA analysis are performed. FIG. 47A: IL-6, FIG. 47B: IL-8 and FIG. 47C: ICAM-1 results are shown. Analyze are performed in triplicates and data are shown as mean±s.e.m. in the graph.
# Preliminary screening for optimization was based on anti-inflammatory efficacy in an in vitro cell-based assay using a human renal tubular epithelial cell line (HK-2). The assay tested the ability of compounds to reverse the increase in production of cytokine IL-6 that resulted from stimulation of the cells with tumor necrosis factor (TNF)-α. Sequence-activity analysis was carried out using the SVA program. After six optimization cycles, THR-123 (FIG. 2A) emerged as the lead compound, which was further evaluated in other relevant anti-fibrosis assays (vide infra).
# Human proximal tubular epithelial cells-derived HK-2 cells were culture on 24-well plate (30,000 cells/well). Cells are exposed to K-SFM medium alone or […] (5 ng/ml). Twenty hours after TNF-α incubation, cells are washed twice by pre-warmed culture media and subsequently cells are incubated with various concentration of THR-123 or BMP7 for 60 hours. At the end of incubation, culture medias are harvested and ELISA analysis for IL-6, IL-8 and ICAM-1 are performed.
Molecule,"kidney histology (H&E), day 7 UUO [1]","interstitial volume / fibrosis, day 7 UUO ([1]; 5 mg/kg/day)","interstitial volume expansion, day 5 UUO ([1]; THR-123 oral 5 mg/Kg or 15 mg/Kg)","kidney histology, day 5 UUO ([1]; THR-123 orally 5 mg/kg or 15 mg/kg)","expression of fibronectin and type I collagen, day 7 UUO ([1]; quantitative RT-PCR)",TNF-α-induced ICAM-1 production (HK-2 cells),TNF-α-induced IL-8 production (HK-2 cells),TNF-α-induced IL-6 production (HK-2 cells; listed as THR-123),"interstitial volume / fibrosis, day 7 UUO [1]","interstitial volume / fibrosis, day 7 UUO ([1]; listed as BMP7)",TNF-α-induced IL-6 production (HK-2 cells)
(H)-CYFDDSSNVLCKKYRS-(OH) (H-CYFDDSSNVLCKKYRS-OH; disulfide 1-11; SMILES CC(C)C[C@@H]1NC(=O)[C@H](C(C)C)NC(=O)[C@H](CC(N)=O)NC(=O)[C@H](CO)NC(=O)[C@H](CO)NC(=O)[C@H](CC(=O)O)NC(=O)[C@H](CC(=O)O)NC(=O)[C@H](Cc2ccccc2)NC(=O)[C@H](Cc2ccc(O)cc2)NC(=O)[C@@H](N)CSSC[C@@H](C(=O)N[C@@H](CCCCN)C(=O)N[C@@H](CCCCN)C(=O)N[C@@H](Cc2ccc(O)cc2)C(=O)N[C@@H](CCCNC(=N)N)C(=O)N[C@@H](CO)C(=O)O)NC1=O) [SEQ ID NO: 1],preserved tubules,inhibited fibrosis; also recorded: less kidney interstitial volume,inhibited interstitial volume expansion,"less tubular atrophy, tubular dilatation and interstitial inflammation",decreased expression of matrix components such as fibronectin and type I collagen,inhibits,inhibits,inhibited TNF-α induced IL-6 production in dose dependent manner; also recorded: significantly reduced,–,–,–
B1,preserved tubules,–,–,–,–,–,–,–,ameliorated interstitial volume expansion,less kidney interstitial volume,inhibited TNF-α induced IL-6 production in dose dependent manner
